The values below are quoted from earlier work in patent US20070166367A1, “Adept or gdept producing acetaldehyde” (priority 2004, published 2007).

Like-named read-outs stand apart in the source and are kept apart here.

For series [1] the following is noted: in vivo; cited from earlier work.
Series [2] has as its target T1, aldehyde dehydrogenase 1 (ALDH1) (Homo sapiens, UniProt P00352).
T1 sequence (P00352 1-501): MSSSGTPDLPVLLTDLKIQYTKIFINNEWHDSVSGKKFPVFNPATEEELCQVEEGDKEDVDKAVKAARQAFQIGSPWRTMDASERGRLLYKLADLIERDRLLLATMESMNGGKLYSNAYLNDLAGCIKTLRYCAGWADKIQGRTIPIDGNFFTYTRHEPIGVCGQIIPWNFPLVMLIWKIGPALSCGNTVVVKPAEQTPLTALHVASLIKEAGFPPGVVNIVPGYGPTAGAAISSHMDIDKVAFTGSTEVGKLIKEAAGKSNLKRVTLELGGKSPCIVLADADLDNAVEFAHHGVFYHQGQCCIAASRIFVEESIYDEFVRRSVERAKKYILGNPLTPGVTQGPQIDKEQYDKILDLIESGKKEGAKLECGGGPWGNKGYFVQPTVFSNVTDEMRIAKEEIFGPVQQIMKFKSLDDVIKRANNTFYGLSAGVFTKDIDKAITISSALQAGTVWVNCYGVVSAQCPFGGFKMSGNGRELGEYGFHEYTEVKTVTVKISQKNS
The conditions noted are these: cited from earlier work.

The conditions of series [3]: during alcohol metabolism; cited from earlier work.
The conditions of series [4]: ethanol IP 3 g/kg, +30 minutes, cited from earlier work.
Series [5] relates to Human Lymphocytes. The conditions noted are these: cited from earlier work.

Consider `CC=O` [acetaldehyde], for which the “level described for systemic acetaldehyde toxicity” value in series [1] is 40 to 60 µM. The Km in series [2] was 22 µM. In series [3], the “levels in the liver” value is around 100 µM. The acetaldehyde levels is 70 µM in series [4] (ADH overexpressing heart) and 15 µM in series [4] (control heart). Further, the “Number of metaphases (cell divisions) counted” value was 200 in series [5] (90 μM); 200 in series [5] (180 μM); 200 in series [5] (360 μM); 130 in series [5] (720 μM); 23 in series [5] (1080 μM); 0 and no growth in series [5] (1440 μM).

Usually Km stands for the substrate concentration at which the rate is half of its maximum.
